Measurements reported in ChEMBL document CHEMBL5532661, “Discovery of a Novel Glucagon-like Peptide-1 (GLP-1) Analogue from Bullfrog and Investigation of Its Potential for Designing GLP-1-Based Multiagonists” (J Med Chem, 2024).
Numbered stars: 1 amine (or outer) side, 2 acyl side, 3 side chain; on linkers, the order of the positions; unused ones are H or OH. Side chains are listed from the residue outwards. Peptide text beside a SMILES is read from it. * marks the point of attachment. C18 diacid = O=C(O)CCCCCCCCCCCCCCCCC(=O)*; γGlu = O=C(O)[C@H](CCC(=O)[*:2])N[*:1]; Palmitoyl = CCCCCCCCCCCCCCCC(=O)*; AEEA = NCCOCCOCC(=O)O

Legend:
Assay type in all cases: functional, cell-based
[1] = target: T1, Glucagon-like peptide 1 receptor (Homo sapiens, UniProt P43220); test: Agonist activity at human GLP-1 receptor expressed in HEK293 cells assessed as cAMP level measured after 60 mins by HTRF based assay
[2] = target: T1, Glucagon-like peptide 1 receptor; test: Agonist activity at human GLP-1 receptor expressed in HEK293 cells assessed as cAMP level by measuring relative percent (GLP-1 EC50/compound EC50) measured after 60 mins by HTRF based assay relative to GLP-1
[3] = target: T2, Glucagon receptor (Homo sapiens, UniProt P47871); test: Agonist activity at human GCGR expressed in HEK293 cells assessed as cAMP level by measuring relative percent (glucagon EC50/compound EC50) measured after 60 mins by HTRF based assay relative to glucagon
[4] = target: T2, Glucagon receptor; test: Agonist activity at human GCGR expressed in HEK293 cells assessed as cAMP level measured after 60 mins by HTRF based assay

T2 sequence (P47871 whole entry): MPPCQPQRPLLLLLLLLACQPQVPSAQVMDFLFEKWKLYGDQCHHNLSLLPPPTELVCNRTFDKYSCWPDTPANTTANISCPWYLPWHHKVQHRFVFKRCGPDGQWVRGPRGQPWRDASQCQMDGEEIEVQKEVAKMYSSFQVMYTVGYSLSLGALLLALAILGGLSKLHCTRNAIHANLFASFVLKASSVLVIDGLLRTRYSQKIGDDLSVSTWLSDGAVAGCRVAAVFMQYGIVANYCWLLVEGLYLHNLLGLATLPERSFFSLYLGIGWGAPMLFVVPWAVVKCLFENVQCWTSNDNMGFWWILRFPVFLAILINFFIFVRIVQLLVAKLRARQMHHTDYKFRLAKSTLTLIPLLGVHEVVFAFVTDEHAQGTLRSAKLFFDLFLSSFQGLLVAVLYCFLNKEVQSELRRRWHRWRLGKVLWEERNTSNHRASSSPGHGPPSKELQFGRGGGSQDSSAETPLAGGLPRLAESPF
T1 sequence (P43220 whole entry): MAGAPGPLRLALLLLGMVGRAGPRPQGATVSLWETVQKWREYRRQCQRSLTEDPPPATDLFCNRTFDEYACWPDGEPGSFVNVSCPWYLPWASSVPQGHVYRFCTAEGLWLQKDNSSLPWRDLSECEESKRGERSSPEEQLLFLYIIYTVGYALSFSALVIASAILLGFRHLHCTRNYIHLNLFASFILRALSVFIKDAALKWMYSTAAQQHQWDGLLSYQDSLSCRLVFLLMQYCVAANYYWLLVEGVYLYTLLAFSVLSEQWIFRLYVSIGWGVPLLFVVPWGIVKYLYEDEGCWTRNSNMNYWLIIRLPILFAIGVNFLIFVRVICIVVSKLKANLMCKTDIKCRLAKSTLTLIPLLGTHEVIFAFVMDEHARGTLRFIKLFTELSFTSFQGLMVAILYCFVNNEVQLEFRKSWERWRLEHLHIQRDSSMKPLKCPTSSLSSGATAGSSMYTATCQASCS

Molecule	EC50 [1]	Activity [3]	Activity [2]	Activity ([2]; filed as agonist)	EC50 [4]	Activity ([3]; filed as agonist)
CCCCCCCCCCCCCCCC(=O)N[C@@H](CCC(=O)NCCCC[C@H](NC(=O)[C@H](CO)NC(=O)[C@@H]1CCCN1C(=O)[C@@H]1CCCN1C(=O)[C@@H]1CCCN1C(=O)[C@H](C)NC(=O)CNC(=O)[C@H](CO)NC(=O)[C@H](CO)NC(=O)[C@@H]1CCCN1C(=O)CNC(=O)CNC(=O)[C@H](CC(N)=O)NC(=O)[C@H](CCCCN)NC(=O)[C@H](CC(C)C)NC(=O)[C@H](Cc1c[nH]c2ccccc12)NC(=O)[C@H](CC(=O)O)NC(=O)[C@@H](NC(=O)[C@H](Cc1ccccc1)NC(=O)[C@H](CC(=O)O)NC(=O)[C@H](CCC(N)=O)NC(=O)[C@H](C)NC(=O)[C@H](CCCNC(=N)N)NC(=O)[C@H](CCCNC(=N)N)NC(=O)[C@H](CO)NC(=O)[C@H](CC(=O)O)NC(=O)[C@H](CC(C)C)NC(=O)[C@H](Cc1ccc(O)cc1)NC(=O)[C@H](CCCCN)NC(=O)[C@H](CO)NC(=O)[C@H](CCSC)NC(=O)[C@H](CC(=O)O)NC(=O)[C@H](CO)NC(=O)[C@@H](NC(=O)[C@H](Cc1ccccc1)NC(=O)[C@@H](NC(=O)CNC(=O)[C@H](CCC(N)=O)NC(=O)[C@H](CO)NC(=O)[C@@H](N)Cc1c[nH]cn1)[C@@H](C)O)[C@@H](C)O)C(C)C)C(N)=O)C(=O)O (H-HSQGTFTSDMSKYLDSRRAQDFVDWLKNGGPSSGAPPPSK([γGlu-Palmitoyl])-NH2)	0.068 nM	17%		78%	0.53 nM	
H-HADGTFTSDMSSYLEEKAAKEFVDWAIKGRPK-NH2	0.53 nM					
H-HADGTFTNDMTSYLDAKAARDFVSWLARSDKS-NH2	0.23 nM					
H-HSQGTFTSDMSKYLDSRRAQDFVDWLIKG-NH2	0.81 nM	4%	7%		2.6 nM	
H-HADGTFTSDMSSYLAEKAAKEFVDWLIKGRPK-NH2	0.61 nM					
CSCC[C@H](NC(=O)[C@H](CC(=O)O)NC(=O)[C@H](CO)NC(=O)[C@@H](NC(=O)[C@H](Cc1ccccc1)NC(=O)[C@@H](NC(=O)CNC(=O)[C@H](CCC(N)=O)NC(=O)[C@H](CO)NC(=O)[C@@H](N)Cc1c[nH]cn1)[C@@H](C)O)[C@@H](C)O)C(=O)N[C@@H](CO)C(=O)N[C@@H](CCCCNC(=O)COCCOCCNC(=O)COCCOCCNC(=O)CC[C@H](NC(=O)CCCCCCCCCCCCCCCCC(=O)O)C(=O)O)C(=O)N[C@@H](Cc1ccc(O)cc1)C(=O)N[C@@H](CC(C)C)C(=O)N[C@@H](CC(=O)O)C(=O)N[C@@H](CO)C(=O)N[C@@H](CCCNC(=N)N)C(=O)N[C@@H](CCCNC(=N)N)C(=O)N[C@@H](C)C(=O)N[C@@H](CCC(N)=O)C(=O)N[C@@H](CC(=O)O)C(=O)N[C@@H](Cc1ccccc1)C(=O)N[C@H](C(=O)N[C@@H](CC(=O)O)C(=O)N[C@@H](Cc1c[nH]c2ccccc12)C(=O)N[C@@H](CC(C)C)C(=O)N[C@@H](CCCCN)C(=O)N[C@@H](CC(N)=O)C(=O)NCC(=O)NCC(=O)N1CCC[C@H]1C(=O)N[C@@H](CO)C(=O)N[C@@H](CO)C(=O)NCC(=O)N[C@@H](C)C(=O)N1CCC[C@H]1C(=O)N1CCC[C@H]1C(=O)N1CCC[C@H]1C(=O)N[C@@H](CO)C(N)=O)C(C)C (H-HSQGTFTSDMSK([AEEA-AEEA-γGlu-C18 diacid])YLDSRRAQDFVDWLKNGGPSSGAPPPS-NH2)	0.052 nM	7%		102%	1.4 nM	
H-HADGTFTSDMSSYLEEKRAKEFVDWLIKGRPK-NH2	0.72 nM					
H-HSQGTFTSDMSKYLDSRRAQDFVDWLIKGR-NH2	0.28 nM	5%	19%		1.8 nM	
H-HSQGTFTSDMSKYLDSRRAQDFVDWLKNGGPSSGAPPPS-NH2	0.016 nM			331%	0.052 nM	177%
H-HADGTYTSDVSSYLQDQAAKKFVTWLKQGQDRRE-NH2	0.35 nM					
CCCCCCCCCCCCCCCC(=O)N[C@@H](CCC(=O)NCCCC[C@H](NC(=O)[C@H](CO)NC(=O)[C@H](CCSC)NC(=O)[C@H](CC(=O)O)NC(=O)[C@H](CO)NC(=O)[C@@H](NC(=O)[C@H](Cc1ccccc1)NC(=O)[C@@H](NC(=O)CNC(=O)[C@H](CCC(N)=O)NC(=O)[C@H](CO)NC(=O)[C@@H](N)Cc1c[nH]cn1)[C@@H](C)O)[C@@H](C)O)C(=O)N[C@@H](Cc1ccc(O)cc1)C(=O)N[C@@H](CC(C)C)C(=O)N[C@@H](CC(=O)O)C(=O)N[C@@H](CO)C(=O)N[C@@H](CCCNC(=N)N)C(=O)N[C@@H](CCCNC(=N)N)C(=O)N[C@@H](C)C(=O)N[C@@H](CCC(N)=O)C(=O)N[C@@H](CC(=O)O)C(=O)N[C@@H](Cc1ccccc1)C(=O)N[C@H](C(=O)N[C@@H](CC(=O)O)C(=O)N[C@@H](Cc1c[nH]c2ccccc12)C(=O)N[C@@H](CC(C)C)C(=O)N[C@@H](CCCCN)C(=O)N[C@@H](CC(N)=O)C(=O)NCC(=O)NCC(=O)N1CCC[C@H]1C(=O)N[C@@H](CO)C(=O)N[C@@H](CO)C(=O)NCC(=O)N[C@@H](C)C(=O)N1CCC[C@H]1C(=O)N1CCC[C@H]1C(=O)N1CCC[C@H]1C(=O)N[C@@H](CO)C(N)=O)C(C)C)C(=O)O (H-HSQGTFTSDMSK([γGlu-Palmitoyl])YLDSRRAQDFVDWLKNGGPSSGAPPPS-NH2)	0.046 nM			115%	0.19 nM	48%
H-HADGTFTSDMSSALEEKAAKEFVDWLIKGRPK-NH2	0.56 nM					
H-HSQGTFTSDMSSYLDSRRAQDFVDWLIKGR-NH2	0.7 nM	3%	5%		3.1 nM	
H-HSQGTFTSDMSSYLDSRRAQDFVDWLMNT-NH2	0.96 nM	18%	6%		0.51 nM	
H-HSQGTFTSDMSKYLDSRRAQDFVDWLIKGRPSSGAPPPS-NH2	0.13 nM	10%		41%	0.91 nM	
H-HADGTFTSDMSSYLEEKAAKEFVDWLIKARPK-NH2	0.63 nM					
CSCC[C@H](NC(=O)[C@H](CC(=O)O)NC(=O)[C@H](CO)NC(=O)[C@@H](NC(=O)[C@H](Cc1ccccc1)NC(=O)[C@@H](NC(=O)CNC(=O)[C@H](CCC(N)=O)NC(=O)[C@H](CO)NC(=O)[C@@H](N)Cc1c[nH]cn1)[C@@H](C)O)[C@@H](C)O)C(=O)N[C@@H](CO)C(=O)N[C@@H](CCCCN)C(=O)N[C@@H](Cc1ccc(O)cc1)C(=O)N[C@@H](CC(C)C)C(=O)N[C@@H](CC(=O)O)C(=O)N[C@@H](CO)C(=O)N[C@@H](CCCNC(=N)N)C(=O)N[C@@H](CCCNC(=N)N)C(=O)N[C@@H](C)C(=O)N[C@@H](CCC(N)=O)C(=O)N[C@@H](CC(=O)O)C(=O)N[C@@H](Cc1ccccc1)C(=O)N[C@H](C(=O)N[C@@H](CC(=O)O)C(=O)N[C@@H](Cc1c[nH]c2ccccc12)C(=O)N[C@@H](CC(C)C)C(=O)N[C@@H](CCCCN)C(=O)N[C@@H](CC(N)=O)C(=O)NCC(=O)NCC(=O)N1CCC[C@H]1C(=O)N[C@@H](CO)C(=O)N[C@@H](CO)C(=O)NCC(=O)N[C@@H](C)C(=O)N1CCC[C@H]1C(=O)N1CCC[C@H]1C(=O)N1CCC[C@H]1C(=O)N[C@@H](CO)C(=O)N[C@@H](CCCCNC(=O)COCCOCCNC(=O)COCCOCCNC(=O)CC[C@H](NC(=O)CCCCCCCCCCCCCCCCC(=O)O)C(=O)O)C(N)=O)C(C)C (H-HSQGTFTSDMSKYLDSRRAQDFVDWLKNGGPSSGAPPPSK([AEEA-AEEA-γGlu-C18 diacid])-NH2)	0.034 nM	3%		156%	3.1 nM	
H-HSQGTFTSDMSSYLDSRRAQEFVDWLIKGR-NH2	0.87 nM	3%	6%		3.5 nM	
H-HAEGTYTDDVSTYLQDQAAKDFVSWLKSGRA-NH2	0.31 nM					
H-HADGTFTSDMSSYLEEKAAKEAVDWLIKGRPK-NH2	0.66 nM					
H-HSQGTFTSDMSSYLDSRRAQDFVDWLKNGGPSSGAPPPS-NH2	0.061 nM			87%	0.15 nM	61%

Continued by falling EC50 [1], values first:

EC50 [1]	Activity [3]	Activity [2]	Molecule	Activity ([2]; filed as agonist)	EC50 [4]	Activity ([3]; filed as agonist)
0.19 nM			H-HADGIYTSDVASLTDYLKSKRFVESLSNYNRKQNDRRM-NH2			
0.12 nM			H-HADGTFTSDMSSYLEEKAAKEFVDWLIAGRPK-NH2			
0.12 nM			H-HADGTFTSDMSAYLEEKAAKEFVDWLIKGRPK-NH2			
0.11 nM	11%		H-HSQGTFTSDMSSYLDSRRAQDFVDWLMNTKRNRNNIA-NH2	45%	0.85 nM	
0.11 nM			H-HADGTFTSDMSSYLEEKAAKAFVDWLIKGRPK-NH2			
0.099 nM			H-HADGTFTSDMSSYLEEKAAKEFVDWLIKGRAK-NH2			
0.097 nM			H-HADGTFTSDMSSYLEEKAAKEFVDWLIKGAPK-NH2			
0.096 nM			H-HADGTFTSDMSSYLEEKAAKEFVAWLIKGRPK-NH2			
0.094 nM			H-HADGTFTSDMSSYLEEKAAKEFADWLIKGRPK-NH2			
0.092 nM			H-HADGTFTSDMSSYLEEKAAKEFVDALIKGRPK-NH2			
0.091 nM			H-HSQGTFTSDMSKYLDSRRAQDFVDWLIKGRNRNNIA-NH2	58%	0.18 nM	51%
0.051 nM			H-HADGTFTSDMSSYLEEKAAKEFVDWLIKGRPK-NH2			
0.018 nM			H-HADGTFTSDMSSYLEEKAAKEFVDWLIKGRPA-NH2			
